Where a name gives a salt, the structure may show the parent alone. Read-outs that look alike come from different tables or passages of the source. One block for each molecule: values may come before it.
Assays:
[1] = system: paw edema induced by exogenous PLA2 (snake, A. piscivorus piscivorus); test: In vivo PLA2 murine paw edema assay; set-up: species or system mouse (male CD-1); details: for ED50 at +10 min: mouse; for change in vivo at 1 mg/kg: Mus musculus, ip, 0.5 h; for % Change in Edema 30 min / change in vivo at 1 mg/kg: 30 min
Description: The ability of the compounds of the invention to inhibit paw edema induced by the exogenous administration of PLA2 is measured in the in vivo PLA2 murine paw edema assay.
(§1) The assay is carried out as follows:
Non-fasted, male CD-1 mice (8 weeks old; 31-36 grams) are placed in plastic boxes in groups of six. The right hind paw volume is measured using mercury plethysmography (zero time). […] A solution of purified PLA2, from the diamond back cotton mouth snake (A. piscivorus piscivorus) is prepared in saline at a concentration of 6 μg/ml. Fifty (50) μl (0.3 μg) of this PLA2 solution is injected subcutaneously into the right hind paw with a plastic 1 ml plastic syringe (27 gauge, 1" needle). Paw volume of the injected paw is measured again at 10 minutes, 30 minutes and 60 minutes after PLA2 injection. Animals are euthanized with CO2 at the completion of the study.
The paw edema is calculated by subtracting the zero time volume from the volume recorded at each time period. Mean paw edema for each treatment group is then calculated and expressed as (μl±S.E.). Drug effects are expressed as a percent change from control (vehicle) values. Statistical significance is determined by a one-way analysis of variance with LSD comparison to control (p<0.05). ED50 's are determined using repression analysis.

[2] = system: TxB2 synthesis (cyclooxygenase) by rat glycogen-elicited polymorphonuclear leukocytes; test: Inhibition of TxB2 synthesis by rat glycogen-elicited PMN (cyclooxygenase); type: cell-based, rat (female Wistar); details: for inhibition at 0.5 µM: negative values denote potentiation of cyclooxygenase; for IC50: rat PMN, read-out: IC50 (TxB2 synthesis)
Description: (§2) Rat polymorphonuclear leukocytes (PMNs) are obtained from female Wistar rats (150-200 g) which receive an injection of 6% glycogen (10 ml i.p.). Rats are sacrificed 18-24 hours post injection by CO2 asphyxiation and the elicited cells are harvested by peritoneal lavage using physiological saline (0.9% NaCl). The exudate is centrifuged at 400×g for 10 minutes. The supernatant fluid is discarded and the cell pellet is resuspended to a concentration of 2.0×10^7 cells/ml in HBSS containing Ca^++ and Mg^++ and 10 μM L-cysteine.
(§3) To 1 ml aliquots of cell suspension, test drugs or vehicle are added, then preincubated at 37° C. for 10 minutes. A 23187 (1 μM), [^3 H]-AA (3.0 μCi/ml) and unlabeled AA (1 μM) are then added and the samples are further incubated for 10 minutes. The reaction is terminated by centrifugation and pelleting cells. Supernatants are then analyzed by HPLC analysis on a 15 cm×4.6 mm ID supelcosil LC-18 (Supelco)(3M) column, using a two solvent system at a flow rate of 1.4 ml total flow as follows:
(§4) Percent solvent changes are accomplished in a linear fashion.
(§5) Injections: 150 μl of each supernatant is injected directly onto column and ^3 H arachidonic acid metabolites are monitored using an on-line radioactivity detector (Ramona, IN/US, Fairfield, NJ).
(§6) Standards: 10^4 -2.0×10^4 dpm of eicosanoids of interest are injected in 90 μl EtOH cocktail.
(§7) Co-chromatography with standard [^3 H] leukotriene B4 (LTB4) in medium of stimulated PMN exposed to drug is compared to that found in medium of stimulated cells exposed to no drug, generating percent inhibition.
(§8) Results are expressed as percent inhibition at a given compound dose or as an IC50 value.
In this assay, the procedure of Example 19 is carried out as described. However, in order to determine cyclooxygenase activity, the samples are co-chromatographed with authentic reference [^3 H]-TxB2.
The results are calculated as in Example 19 and presented below: […]

[3] = system: LTB4 synthesis by rat glycogen-elicited polymorphonuclear leukocytes (lipoxygenase); test: Inhibition of LTB4 synthesis by rat glycogen-elicited polymorphonuclear leukocytes (PMN); type: cell-based, rat (female Wistar); details: A 23187 and exogenous AA; for inhibition at 0.5 µM: negative value denotes potentiation
From the text: This is especially true with respect to 5,12-diHETE, which is also denoted as LTB4 [see Ford-Hitchinson, J. Roy. Soc. Med., 74, 831 (1981)]. Compounds which inhibit the PLA2 -mediated release of arachidonic acid thereby effectively prevent the oxidation of arachidonic acid to the various leukotriene products via the lipoxygenase cascade. Accordingly, the specificity of action of PLA2 inhibitors can be determined by the activity of test compounds in this assay, which measures the ability of compounds to inhibit the synthesis of LTB4 by rat glycogen-elicited polymorphonuclear leukocytes (PMN) in the presence of exogenous substrate.
as §1, §2, §3
Gradient: (system is equillibrated with Solvent A)
as §4, §5, §6, §7, §8

[4] = biological target: T1, human synovial fluid PLA2 (Homo sapiens, UniProt P14555); test: In vitro isolated phospholipase A2 assay, human synovial fluid PLA2; type: biochemical; details: 10 μM; human synovial fluid; negative values denote potentiation; read-out: % Inhibition at 10 μM HSF
T1 construct: Purified human synovial fluid; from tissue; host or cells: human synovial fluid
T1 sequence (P14555 21-144): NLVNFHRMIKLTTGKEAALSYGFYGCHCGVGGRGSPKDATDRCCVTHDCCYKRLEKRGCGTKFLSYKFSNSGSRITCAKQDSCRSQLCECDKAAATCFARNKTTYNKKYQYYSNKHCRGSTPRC
Description: The compounds of the invention are tested in an in vitro isolated phospholipase A2 assay to determine the ability of the test compounds to inhibit the release of arachidonic acid from an arachidonic acid-containing substrate by the action of phospholipase A2 enzyme from human and non-human sources.
This assay is carried out as follows:
Into a 15 mL polypropylene tube are added the following:
*pre-incubate at room temperature 30 min prior to substrate addition.
^5 Stock 10 mM prepared in dimethyl sulfoxide. Make 1:2 dilution with
dimethyl sulfoxide and add 1 μ L to 100 μL assay tube.
^6 Two human PLA2 enzymes are used:
b) Purified human synovial fluid.
Incubate the 100 μL reaction mixture for 10 minutes at 37° C. in a shaking water bath. The reaction is terminated by the addition of 2 mL tetrahydrofuran, followed by vortexing. NH2 columns (100 μg/mL--Analytichem International) are conditioned with 0.5 mL tetrahydrofuran followed by 0.5 mL tetrahydrofuran/water (2 mL:0.1 mL, v/v).
The sample is loaded onto the columns and slowly drawn through them. The hydrolyzed arachidonic acid retained in the columns is eluted therefrom with 1 mL tetrahydrofuran/glacial acetic acid (2%). The arachidonic acid is transferred to scintillation vials and quantitated by β-counting analysis. A "total counts" sample is prepared by pipetting 25 μL ^3 H-arachidonate E. coli directly into a scintillation vial to which is added 1 mL tetrahydrofuran. 10 mL aquasol (scintillation cocktail) is added to all samples. [formula]

human platelet PLA2 = biological target: T2, human platelet PLA2 (Homo sapiens, UniProt P14555); test: In vitro isolated phospholipase A2 assay, human platelet PLA2 (arachidonic acid release from 3H-AA E. coli substrate); type: biochemical; details: 10 μM; human platelet; negative values denote potentiation; read-out: % Inhibition at 10 μM HP
T2 construct: Semipurified human platelet acid extract PLA2; from tissue; host or cells: human platelets (semipurified acid extract)
T2 sequence (P14555 21-144): T1 sequence (P14555 21-144)

Molecule: COc1cccc2c1cc([N+](=O)[O-])c1c(C(=O)O)cc3c(c12)OCO3 [Aristolochic Acid, reference compound]
ED50 at +10 min ([1]; p.o., standard drugs): Not Active

Molecule: C[C@@H]1C[C@H]2[C@@H]3CCC4=CC(=O)C=C[C@]4(C)[C@@]3(F)[C@@H](O)C[C@]2(C)[C@@]1(O)C(=O)CO [Dexamethasone, reference compound]
ED50 at +10 min ([1]; p.o. 3 hr, standard drug): 10 mg/kg

Molecule: COC(=O)Cc1cc(OCc2ccc3ccccc3n2)ccc1Nc1c(Cl)cccc1Cl [Example 1, 2-[(2,6-Dichlorophenyl)amino]-5-(2-quinolinylmethoxy)-benzene acetic acid methyl ester ethanedioate (1:1)]
inhibition at 0.5 µM ([2]; Rattus norvegicus, Leukocyte): 4%
% Change in Edema 3 min ([1]; 1 mg/kg i.p.): -10%
% Change in Edema 10 min ([1]; 1 mg/kg i.p.): -31%
% Change in Edema 3 min ([1]; 10 mg/kg i.p.): -39%
% Change in Edema 10 min ([1]; 10 mg/kg i.p.): -77%
% Change in Edema 30 min ([1]; 10 mg/kg i.p.): -37%
change in vivo at 1 mg/kg ([1]; 1 mg/kg i.p.): -23%
inhibition at 0.5 µM ([3]; Leukocyte): 96%

Molecule: O=C(O)Cc1cc(OCc2ccc3ccccc3n2)ccc1Nc1c(Cl)cccc1Cl [Example 3, 2-[(2,6-Dichlorophenyl)amino]-5-(2-quinolinylmethoxy)benzene acetic acid sodium salt]
IC50 ([2]; acetic acid sodium salt): > 1 µM
% Change in Edema 10 min ([1]; 10 mg/kg i.p.): +12%
% Change in Edema 30 min ([1]; 10 mg/kg i.p.): -10%
% Change in Edema 60 min ([1]; 10 mg/kg i.p.): +12%
inhibition at 10 µM [4]: 21.7%
IC50 ([3]; acetic acid sodium salt): 0.02 µM

Molecule: O=C(O)Cc1cc(OCc2ccc3ccccc3n2)ccc1Nc1c(Cl)cccc1Cl [Example 4, 2-[(2,6-Dichlorophenyl)amino]-5-(2-quinolinylmethoxy)benzene acetic acid 2-amino-2-(hydroxymethyl)-1,3-propanediol salt (1:1)]
IC50 [2]: 3.7 µM

inhibition at 10 µM [4]: -127%
inhibition at 10 µM (human platelet PLA2): -5.3%
Molecule: COC(=O)Cc1cc(OCc2ccc3ccc(Cl)cc3n2)ccc1Nc1c(Cl)cccc1Cl [Example 5, 5-[(7-Chloro-2-quinolyl)methoxy]-2-[(2,6-dichlorophenyl)amino]benzene acetic acid methyl ester]
inhibition at 0.5 µM ([2]; Rattus norvegicus, Leukocyte): 0%
inhibition at 10 µM ([2]; Rattus norvegicus, Leukocyte, at 10 μM): 27%
inhibition at 0.5 µM ([3]; Leukocyte): 56%
inhibition at 10 µM ([3]; Leukocyte, at 10 μM): 95%

Molecule: COC(=O)Cc1cc(OCc2nc3ccccc3n2C)ccc1Nc1c(Cl)cccc1Cl [Example 10, 2-[(2,6-Dichlorophenyl)amino]-5-[(1-methyl-1H-benzimidazol-2-yl)methoxy]benzene acetic acid methyl ester]
inhibition at 0.5 µM ([2]; Rattus norvegicus, Leukocyte): 32%
% Change in Edema 10 min ([1]; 1 mg/kg i.p.): -29%
% Change in Edema 10 min ([1]; 10 mg/kg i.p.): -49%
% Change in Edema 30 min ([1]; 10 mg/kg i.p.): -36%
change in vivo at 1 mg/kg ([1]; 1 mg/kg i.p.): -20%
inhibition at 0.5 µM ([3]; Leukocyte): 65%

inhibition at 10 µM [4]: 33.3%
Molecule: Cn1c(COc2ccc(Nc3c(Cl)cccc3Cl)c(CC(=O)O)c2)nc2ccccc21 [Example 11, acetic acid]
inhibition at 0.5 µM ([2]; Rattus norvegicus, Leukocyte): -8%
inhibition at 0.5 µM ([3]; Leukocyte): -6%

Molecule: CONC(=O)Cc1cc(OCc2ccc3ccccc3n2)ccc1Nc1c(Cl)cccc1Cl [Example 12]
inhibition at 0.5 µM ([2]; Rattus norvegicus, Leukocyte): -2%
% Change in Edema 10 min ([1]; 10 mg/kg i.p.): -15%
% Change in Edema 30 min ([1]; 10 mg/kg i.p.): -45%
% Change in Edema 60 min ([1]; 10 mg/kg i.p.): -28%
% Change in Edema 10 min ([1]; 50 mg/kg p.o.): -2%
% Change in Edema 30 min ([1]; 50 mg/kg p.o.): -36%
% Change in Edema 60 min ([1]; 50 mg/kg p.o.): -22%
inhibition at 10 µM [4]: -41.5%
inhibition at 0.5 µM ([3]; Leukocyte): 70%

inhibition at 10 µM [4]: -24%
Molecule: O=C1Cc2cc(OCc3ccc4ccccc4n3)ccc2N1c1ccccc1 [Example 15, 1-Phenyl-5-(2-quinolinylmethoxy)-1,3-dihydro-2H-indol-2-one]
inhibition at 0.5 µM ([2]; Rattus norvegicus, Leukocyte): -9%
inhibition at 0.5 µM ([3]; Leukocyte): 40%

inhibition at 10 µM [4]: 5.1%
inhibition at 10 µM (human platelet PLA2): 2.2%
Molecule: O=C1Cc2cc(OCc3ccc4ccc(Cl)cc4n3)ccc2N1c1c(Cl)cccc1Cl [Example 18, 1-(2,6-Dichlorophenyl)-5-[7-chloro-2-(quinolinylmethoxy)]-1,3-dihydro-2H-indol-2-one]

Molecule: COc1ccc2cc([C@H](C)C(=O)O)ccc2c1 [Naproxen, reference compound]
ED50 at +10 min ([1]; p.o., standard drugs): 18 mg/kg

Molecule: Luffarrellolide [reference compound]
ED50 at +10 min ([1]; p.o., standard drugs): Not Active
